Tests used:
Assay in all cases: relative viability (nuclei count vs DMSO), 5 days (fraction); higher = more cells survive
[1] = compound: COc1cc(Nc2ncc(F)c(Nc3ccc4c(n3)NC(=O)C(C)(C)O4)n2)cc(OC)c1OC [R406] + Cc1cc(Nc2cc(N3CCN(C)CC3)nc(Sc3ccc(NC(=O)C4CC4)cc3)n2)n[nH]1 [Tozasertib] (partner 0.1 µM)
Procedure, shortened: (§1)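 Cells from lung cancer lines were seeded into 1536-well plates and, one day later, dosed by pin tool. Treatments were either a single drug or a fixed dose of an anchor drug with five library-drug doses (not always all listed) in √10 steps. After 5 days, nuclei were stained in a one-step fixation (final 0.05% Triton X-100, 1% formaldehyde, 1 ug/ml Hoechst) and counted on 4× images, and relative viability is the treated-to-vehicle nuclei ratio, as the median of duplicate plates.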

[2] = compound: COc1cc(Nc2ncc(F)c(Nc3ccc4c(n3)NC(=O)C(C)(C)O4)n2)cc(OC)c1OC [R406] + O=C(c1cc(Cc2n[nH]c(=O)c3ccccc23)ccc1F)N1CCN(C(=O)C2CC2)CC1 [Olaparib] (partner 8 µM)
Procedure, shortened: as §1

[3] = compound: COc1cc(Nc2ncc(F)c(Nc3ccc4c(n3)NC(=O)C(C)(C)O4)n2)cc(OC)c1OC [R406] + CC(C)C[C@H](NC(=O)[C@H](Cc1ccccc1)NC(=O)c1cnccn1)B(O)O [Bortezomib] (partner 0.002 µM)
Procedure, shortened: as §1

[4] = compound: COc1cc(Nc2ncc(F)c(Nc3ccc4c(n3)NC(=O)C(C)(C)O4)n2)cc(OC)c1OC [R406] + CS(=O)(=O)CCNCc1ccc(-c2ccc3ncnc(Nc4ccc(OCc5cccc(F)c5)c(Cl)c4)c3c2)o1 [Lapatinib] (partner 2 µM)
Procedure, shortened: as §1

Cell Line | relative viability ([1]; first compound 0.08 µM) | relative viability ([1]; first compound 0.253 µM) | relative viability ([1]; first compound 0.8 µM) | relative viability ([1]; first compound 2.53 µM) | relative viability ([1]; first compound 8 µM) | relative viability ([2]; first compound 0.08 µM) | relative viability ([2]; first compound 0.253 µM) | relative viability ([2]; first compound 0.8 µM) | relative viability ([2]; first compound 2.53 µM) | relative viability ([2]; first compound 8 µM) | relative viability ([3]; first compound 0.253 µM) | relative viability ([3]; first compound 0.8 µM) | relative viability ([3]; first compound 8 µM) | relative viability ([4]; first compound 0.08 µM) | relative viability ([4]; first compound 0.253 µM) | relative viability ([4]; first compound 0.8 µM) | relative viability ([4]; first compound 2.53 µM) | relative viability ([4]; first compound 8 µM) | relative viability ([3]; first compound 0.08 µM) | relative viability ([3]; first compound 2.53 µM)
NCI-H522 | 0.467 | 0.527 | 0.562 | 0.582 | 0.433 | 0.518 | 0.578 | 0.713 | 0.636 | 0.511 |  |  |  |  |  |  |  |  |  | 
NCI-H441 | 0.676 | 0.72 | 0.635 | 0.524 | 0.265 | 0.429 | 0.693 | 0.619 | 0.489 | 0.322 | 0.383 | 0.713 | 0.331 |  |  |  |  |  |  | 
NCI-H2170 | 0.758 | 0.703 | 0.708 | 0.615 | 0.632 | 0.63 | 0.573 | 0.648 | 0.44 | 0.488 |  |  |  | 0.253 | 0.25 | 0.247 | 0.272 | 0.258 |  | 
NCI-H2342 | 0.494 | 0.644 | 0.491 | 0.469 | 0.479 | 0.395 | 0.415 | 0.447 | 0.355 | 0.439 |  |  |  |  |  |  |  |  |  | 
Calu-6 |  |  |  |  |  | 0.556 | 0.571 | 0.576 |  | 0.271 | 1.06 | 1.04 | 0.557 | 1.02 | 1.25 | 1.09 | 0.745 | 0.476 | 0.997 | 0.631
NCI-H1793 | 0.333 | 0.353 | 0.389 | 0.155 | 0.109 | 0.781 | 0.794 | 0.946 | 0.356 | 0.144 |  |  |  | 0.823 | 0.692 | 0.641 | 0.144 | 0.207 |  | 
NCI-H1299 |  |  |  |  |  | 0.972 | 0.986 | 0.957 | 1.05 | 0.731 | 1.02 | 1.02 | 1.04 | 1.01 | 0.982 | 0.98 | 0.933 | 0.721 | 1 | 1.04
EBC-1 |  |  |  |  |  | 0.671 | 0.783 | 0.843 | 0.644 | 0.369 | 0.616 | 0.672 | 0.231 | 0.22 | 0.226 | 0.216 | 0.233 | 0.197 | 0.606 | 0.44
NCI-H358 | 0.107 | 0.116 | 0.081 | 0.109 | 0.0818 | 0.562 | 0.617 | 0.632 | 0.279 | 0.209 |  |  |  | 0.407 | 0.441 | 0.47 | 0.375 | 0.2 |  | 
NCI-H1792 |  |  |  |  |  | 0.456 | 0.402 | 0.491 | 0.189 | 0.194 | 0.909 | 1.04 | 0.861 | 0.844 | 1.1 | 1.06 | 0.776 | 0.765 | 0.981 | 0.851
